# Measured values taken from publication PMC10296094, “K-Ras Binds Calmodulin-Related Centrin1 with Potential Implications for K-Ras Driven Cancer Cell Stemness” (Cancers, 2023).
# Like-named read-outs stand apart in the source and are kept apart here.
# Columns and labels:
# centrin1 = target: T1, centrin1 (Homo sapiens, UniProt Q12798); test: Fluorescence anisotropy competition: displacement of F-Sfi1 from centrin1 by CaM inhibitors; type: binding
# T1 sequence (Q12798 1-172): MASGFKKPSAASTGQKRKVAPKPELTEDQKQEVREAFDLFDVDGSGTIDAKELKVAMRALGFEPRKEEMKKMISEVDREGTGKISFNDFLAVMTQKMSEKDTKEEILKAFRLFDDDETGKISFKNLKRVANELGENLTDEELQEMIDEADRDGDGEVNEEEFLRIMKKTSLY
# Experimental: The Sfi1 peptide was derived from 670-REVAA-RESQH-NRQLL-RGALR-RWK-692 of human Sfi1 and the fluorescein was attached to the native C-terminal Lys. Sfi1 peptide titration was performed in a buffer composed of 10 mM HEPES pH 7.4, 100 mM CaCl2, and 0.005% v/v Tween 20. For binding, to a 2-fold dilution series of centrin1, 100 nM of Sfi1 peptide was added, and the reaction mix was incubated for 45 min at RT before anisotropy measurements. For measuring the IC50 of inhibitors to centrin1, to the 3-fold dilution series of inhibitors in the assay buffer, a complex of 100 nM fluorescein labelled Sfi1 peptide and 250 nM His-centrin1 was added in 20 µL volume in a 384-well plate. The fluorescence anisotropy was measured after overnight incubation at RT.
# The fluorescence anisotropy was measured on a Clariostar (BMG Labtech, Ortenberg, Germany) plate reader using the fluorescence intensity signal recorded from vertical (Iv)- and horizontal (Ih)-polarised light using a fluorescence polarisation module (λexcitation 482 ± 8 nm and λemission 530 ± 20 nm). Fluorescence anisotropy was calculated from the measured fluorescence intensities according to r=Iv−GλIh/Iv+2GλIh, where r is the fluorescence anisotropy value and Iv and Ih are the fluorescence emission intensities detected with vertical and horizontal polarisation, respectively. The instrument specific correction factor G(λ) was set to 1 and not determined further. A quadratic equation as described by others was defined in Prism (GraphPad, version 9.5.1, La Jolla, CA, USA) and was used to determine the KD value of the fluorescein tagged peptides to target protein. y=Af+Ab−Af∗(Lt+KD+x−Lt+KD+x^2−4∗Lt∗x/2Lt
# The IC50 value of inhibitors was determined by plotting the log concentration of inhibitor against fluorescence anisotropy values and fitting the data to log inhibitor vs. response—variable slope (four parameters) equation in Prism (GraphPad).
# CaM = settings: F-PMCA peptide as probe; read-out: CaM Kd (References); cited from earlier work
# K-RasG12V/centrin1 = target: T2, K-RasG12V/centrin1 (Homo sapiens, UniProt Q12798); test: Cellular BRET Rluc8-K-RasG12V/GFP2-centrin1 in HEK293-ebna cells; type: cell-based; settings: for effect on BRETtop of K-RasG12V/centrin1: ophiobolin A 2.5 µM, calmidazolium 10 µM, calmirasone1 20 µM, 24 h, n = 3
# T2 construct: expressed in transfected cells; host or cells: HEK293-ebna
# T2 sequence (Q12798 1-172): T1 sequence (Q12798 1-172)
# Experimental: Briefly, ~200,000 HEK293-ebna cells were seeded per well of a 12-well plate (cat. no. 665180, Greiner Bio-One, Vivoorde, Belgium) and grown in 1 mL of complete DMEM. The next day, ~1 µg of BRET sensor plasmids was transfected using 2.5 µL of jetPRIME. The concentration of donor plasmid was 25 ng, and that of the acceptor plasmid had increased from 25 ng to 1000 ng for titration curves. Cells were treated with inhibitors or vehicle control (DMSO at 0.2% v/v) 24 h after transfection. Cells were collected the following day in PBS and plated in white, flat bottom 96-well plates (cat. no. 236108, Nunc, Thermo Fisher Scientific). BRET measurements were performed on a Clariostar plate reader (BMG Labtech). Three channels were read. The first channel was First, GFP2-fluorescence (λexcitation 405 ± 10 nm and λemission 515 ± 10 nm), which is directly proportional to the acceptor concentration (RFU). Second, the channel was read after adding coelenterazine 400a (cat. no. C-320, GoldBio, Saint Louis, MO, USA; at 10 μM final concentration) BRET-channel (515 ± 15 nm) readings in well-mode, and then again (third) with the luminescence channel (410 ± 40 nm), and recordings were made. Signals corresponded to the BRET signal and donor (RLU) signals. The ratio of BRET signal/RLU gave the raw BRET ratio. The final BRET ratio (BRET in plots) was obtained by subtracting the raw BRET ratio from the background raw BRET ratio of cells expressing only the donor. The relative expression is calculated as the ratio of RFU/RLU and denoted as [Acceptor]/[Donor]. […]
# For dose response analysis of inhibitors, on day one, ~200,000 HEK293-ebna cells were seeded per well of a 12-well plate (cat. No. 665180, Greiner Bio-One, Vivoorde, Belgium) and grown in complete DMEM. […] The log inhibitor vs BRET ratio was plotted, and the data were fitted by a log (inhibitor) vs. response variable slope (four parameters) equation of Prism, and the IC50 values were calculated.
# K-Ras/CaM = test: Cellular BRET donor saturation titration Rluc8-K-Ras/GFP2-CaM in HEK293-ebna cells; type: cell-based, human; settings: 10 µM mevastatin, 24 h
# Experimental: (§1) The detailed method of our BRET assay can be found in [9, 43]. Briefly, ~200,000 HEK293-ebna cells were seeded per well of a 12-well plate (cat. no. 665180, Greiner Bio-One, Vivoorde, Belgium) and grown in 1 mL of complete DMEM. The next day, ~1 µg of BRET sensor plasmids was transfected using 2.5 µL of jetPRIME. The concentration of donor plasmid was 25 ng, and that of the acceptor plasmid had increased from 25 ng to 1000 ng for titration curves. Cells were treated with inhibitors or vehicle control (DMSO at 0.2% v/v) 24 h after transfection. Cells were collected the following day in PBS and plated in white, flat bottom 96-well plates (cat. no. 236108, Nunc, Thermo Fisher Scientific). BRET measurements were performed on a Clariostar plate reader (BMG Labtech). Three channels were read. The first channel was First, GFP2-fluorescence (λexcitation 405 ± 10 nm and λemission 515 ± 10 nm), which is directly proportional to the acceptor concentration (RFU). Second, the channel was read after adding coelenterazine 400a (cat. no. C-320, GoldBio, Saint Louis, MO, USA; at 10 μM final concentration) BRET-channel (515 ± 15 nm) readings in well-mode, and then again (third) with the luminescence channel (410 ± 40 nm), and recordings were made. Signals corresponded to the BRET signal and donor (RLU) signals. […] The relative expression is calculated as the ratio of RFU/RLU and denoted as [Acceptor]/[Donor]. […]
# K-Ras/centrin1 = test: Cellular BRET donor saturation titration Rluc8-K-Ras/GFP2-centrin1 in HEK293-ebna cells; type: cell-based, human; settings: 10 µM mevastatin, 24 h
# Experimental: as §1
# CTK/CaM = test: Cellular BRET donor saturation titration Rluc8-CTK/GFP2-CaM in HEK293-ebna cells; type: cell-based, human; settings: 10 µM mevastatin, 24 h
# Experimental: as §1
# CTK/centrin1 = test: Cellular BRET donor saturation titration Rluc8-CTK/GFP2-centrin1 in HEK293-ebna cells; type: cell-based, human; settings: 10 µM mevastatin, 24 h
# Experimental: as §1
# [1] = 100 nM F-Sfi1 and 250 nM His-centrin1, overnight at RT, Kd converted from IC50, read-out: Centrin1 Mean Kd (Repeat Values)
smiles,measurement,setting,value
NCCCCCCNS(=O)(=O)c1cccc2c(Cl)cccc12 [W-7],Kd,centrin1; [1],18.2 µM
same,Kd,CaM,1.47 µM
"Clc1ccc(C(c2ccc(Cl)cc2)n2cc[n+](CC(OCc3ccc(Cl)cc3Cl)c3ccc(Cl)cc3Cl)c2)cc1 (centres unmarked) [calmidazolium, calmidazolium chloride]",Kd,centrin1; [1],1.6 µM
same,IC50,"K-RasG12V/centrin1; HEK293-ebna, donor/acceptor plasmid ratio 1/19, 24 h treatment, n = 2, read-out: IC50, inhibition of K-RasG12V/centrin1 BRET interaction",10.44 ± 0.05 µM
same,effect on BRETtop of K-RasG12V/centrin1,K-RasG12V/centrin1,lowered
same,Kd,CaM,0.0135 µM
CC[C@H](C)C(=O)O[C@H]1CCC=C2C=C[C@H](C)[C@H](CC[C@@H]3C[C@@H](O)CC(=O)O3)[C@H]21 [mevastatin],effect on BRET-levels of K-Ras with CaM,K-Ras/CaM,did not significantly affect
same,BRETtop (K-Ras + CaM),K-Ras/CaM; n = 3,0.097 ± 0.005
same,effect on BRET-levels of K-Ras with centrin1,K-Ras/centrin1,did not significantly affect
same,BRETtop (K-Ras + centrin1),K-Ras/centrin1; n = 3,0.078 ± 0.005
same,effect on BRET of CTK with CaM,CTK/CaM,did not decrease
same,BRETtop (CTK + CaM),CTK/CaM; n = 3,0.063 ± 0.004
same,effect on BRET of CTK with centrin1,CTK/centrin1,did not decrease
same,BRETtop (CTK + centrin1),CTK/centrin1; n = 3,0.061 ± 0.003
CC(C)=C[C@H]1C[C@H](C)[C@]2(CC[C@]3(C)C[C@H]4[C@H](C(=O)C[C@@]4(C)O)/C(C=O)=C\C[C@H]32)O1 [ophiobolin A],Kd,centrin1,49 µM
same,effect on BRETtop of K-RasG12V/centrin1,K-RasG12V/centrin1,lowered
same,Kd,CaM,3.5 µM
